Assay results reported in patent publication US10752884B2, “Method of inducing beta cells from urine-derived cells using small molecules” (UNIVERSITY OF SOUTH AUSTRALIA, priority 2014, dated 2020).

Tests used:
[1] = tested on: human urine cells (HUC); experiment: Secondary induction, cell morphology by phase contrast microscopy; format: cell-based; conditions: after Example 2 primary induction; 330 nm Indolactam V, four days
Protocol: HUC-M-35 P5 cells were prepared using the primary induction protocol described in Example 2. The cells were then cultured in a secondary induction medium containing DMEM, […] Indolactam V, 1×2 mM L-glutamine (Life Technologies, Cat No. 25030-081), and 1×B27 (Life Technologies, Cat No. 17504044) and p/s as detailed above for four days. The morphology of the resultant cells was examined by phase contrast microscopy.
HUC-M-35 P5 cells were induced using the primary induction protocol described in Example 2. […] The morphology of the resultant cells was assessed by phase contrast microscopy.

[2] = target: ALK1 (Homo sapiens, UniProt P37023); conditions: cited from earlier work
[3] = tested on: TGF-β-induced EMT; conditions: via the inhibition of Smad2 phosphorylation; cited from earlier work
[4] = target: ALK6 (Homo sapiens, UniProt O00238); conditions: cited from earlier work
[5] = target: T1, ALK2 (Homo sapiens, UniProt Q04771); conditions: cited from earlier work
T1 sequence (Q04771 21-509): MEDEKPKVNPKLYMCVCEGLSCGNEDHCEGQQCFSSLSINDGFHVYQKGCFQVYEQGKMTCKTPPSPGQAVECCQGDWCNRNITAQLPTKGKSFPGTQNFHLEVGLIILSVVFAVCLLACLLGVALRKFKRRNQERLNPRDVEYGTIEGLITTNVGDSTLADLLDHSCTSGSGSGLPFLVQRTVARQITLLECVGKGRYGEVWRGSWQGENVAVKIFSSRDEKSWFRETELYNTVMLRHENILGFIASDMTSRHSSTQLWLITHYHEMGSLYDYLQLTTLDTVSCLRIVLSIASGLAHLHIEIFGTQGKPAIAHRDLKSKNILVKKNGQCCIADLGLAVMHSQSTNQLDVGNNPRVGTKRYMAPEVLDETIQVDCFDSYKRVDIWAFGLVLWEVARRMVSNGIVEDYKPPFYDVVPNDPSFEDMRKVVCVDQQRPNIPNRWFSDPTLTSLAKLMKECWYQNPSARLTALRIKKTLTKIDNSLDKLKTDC

[6] = target: ALK3 (Homo sapiens, UniProt P36894); conditions: cited from earlier work
[7] = tested on: ALK4; conditions: cited from earlier work

Sequence of ALK3 (P36894 24-532): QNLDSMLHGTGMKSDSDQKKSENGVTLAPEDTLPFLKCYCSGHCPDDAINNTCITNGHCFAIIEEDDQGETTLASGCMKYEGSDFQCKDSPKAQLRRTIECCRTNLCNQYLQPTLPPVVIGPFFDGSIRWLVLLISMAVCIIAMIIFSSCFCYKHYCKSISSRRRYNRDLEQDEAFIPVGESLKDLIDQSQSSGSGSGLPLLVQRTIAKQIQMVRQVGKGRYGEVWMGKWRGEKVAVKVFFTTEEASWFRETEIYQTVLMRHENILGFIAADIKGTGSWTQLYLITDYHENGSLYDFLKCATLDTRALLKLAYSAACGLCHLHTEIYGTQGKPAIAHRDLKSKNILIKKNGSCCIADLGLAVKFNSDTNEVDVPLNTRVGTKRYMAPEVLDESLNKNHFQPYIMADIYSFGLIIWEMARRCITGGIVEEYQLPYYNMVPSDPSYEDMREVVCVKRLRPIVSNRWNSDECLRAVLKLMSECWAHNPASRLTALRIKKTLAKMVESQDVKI
Sequence of ALK6 (O00238 14-502): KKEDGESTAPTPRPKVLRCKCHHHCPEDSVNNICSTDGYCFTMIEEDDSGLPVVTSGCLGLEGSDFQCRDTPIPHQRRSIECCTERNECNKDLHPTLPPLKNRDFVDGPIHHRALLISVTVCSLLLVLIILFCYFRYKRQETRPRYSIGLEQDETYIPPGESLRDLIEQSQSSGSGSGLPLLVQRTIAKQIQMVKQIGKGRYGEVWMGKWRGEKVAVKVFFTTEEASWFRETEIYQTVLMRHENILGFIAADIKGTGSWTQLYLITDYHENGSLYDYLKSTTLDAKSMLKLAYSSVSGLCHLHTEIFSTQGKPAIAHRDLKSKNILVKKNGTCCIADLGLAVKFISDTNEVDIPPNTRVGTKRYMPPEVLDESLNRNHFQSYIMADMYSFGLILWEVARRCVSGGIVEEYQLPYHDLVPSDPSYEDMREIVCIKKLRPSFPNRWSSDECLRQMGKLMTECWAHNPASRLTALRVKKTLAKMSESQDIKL
Sequence of ALK1 (P37023 22-503, species assumed): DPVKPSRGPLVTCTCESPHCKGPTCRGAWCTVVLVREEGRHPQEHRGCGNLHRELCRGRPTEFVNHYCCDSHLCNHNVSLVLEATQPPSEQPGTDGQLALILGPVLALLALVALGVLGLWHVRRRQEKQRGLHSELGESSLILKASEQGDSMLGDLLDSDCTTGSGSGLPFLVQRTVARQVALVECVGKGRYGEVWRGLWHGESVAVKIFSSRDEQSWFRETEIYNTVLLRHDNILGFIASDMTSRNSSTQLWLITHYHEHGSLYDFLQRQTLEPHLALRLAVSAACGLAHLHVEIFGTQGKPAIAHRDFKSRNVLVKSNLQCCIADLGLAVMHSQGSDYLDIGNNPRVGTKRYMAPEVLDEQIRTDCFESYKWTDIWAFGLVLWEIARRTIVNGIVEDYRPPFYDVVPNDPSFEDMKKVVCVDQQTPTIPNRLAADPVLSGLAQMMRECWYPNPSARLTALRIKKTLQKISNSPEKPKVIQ

Structure (SMILES) | cell morphology following secondary induction [1] | inhibition of ALK1 [2] | inhibition of TGF-β-induced EMT [3] | inhibition of ALK6 [4] | inhibition of ALK2 [5] | inhibition of ALK3 [6] | IC50 [7] [µM]
CC(C)[C@H]1C(=O)N[C@H](CO)Cc2c[nH]c3cccc(c23)N1C [Indolactam V, (2S,5S)-1,2,4,5,6,8-Hexahydro-5-(hydroxymethyl)-1-methyl-2-(1-methylethyl)-3H-pyrrolo[4,3,2-gh]-1,4-benzodiazonin-3-one] | some cells appeared to have an islet cell morphology | – | – | – | – | – | –
Cc1cccc(-c2nn(C(=S)Nc3ccccc3)cc2-c2ccnc3ccccc23)n1 [A83-01, 3-(6-Methyl-2-pyridinyl)-N-phenyl-4-(4-quinolinyl)-1H-pyrazole-1-carbothioamide] | – | weakly inhibits | inhibit | weakly inhibits | weakly inhibits | weakly inhibits | 0.012
